Four molecules from US6867200B1, “(Hetero)aryl-bicyclic heteroaryl derivatives, their preparation and their use as protease inhibitors” (Axys Pharmaceuticals, Inc., priority 1998, dated 2005) can be followed below.

Test [1] deals with T1, human Urokinase (Homo sapiens, UniProt P00749).
T1 construct: purchased American Diagnostica, CT, USA
Kind of test: Urokinase (uPA) inhibition, chromogenic substrate hydrolysis, Ki app. It is filed as biochemical.
Protocol: (§1) The effectiveness of compounds of the present invention as inhibitors of Urokinase and Factor Xa is determined using synthetic substrates and purified Urokinase and purified human Factor Xa respectively.
(§2) The rates of hydrolysis by the chromagenic substrates were measured both in the absence and presence of compounds of the present invention. […] The results of this assay are expressed as the inhibitory constant, Ki app.
Urokinase inhibition determinations were made in 50 mM Tris (pH7.5), 150 mM NaCl, 0.05% Tween-20, 0.002% antifoam, and 1 mM EDTA. human Urokinase (from American Diagnostica, CT, USA). […] The enzyme assay routinely yielded linear progression curves under these conditions. Initial velocity measurements calculated from the progress curves by a kinetic analysis program (Batch Ki; Peter Kuzmic, BioKin, Ltd., Madison, Wis.) were used to determine Ki app.

For test [2], the target named is T2, human Factor Xa (Homo sapiens, UniProt P00742).
T2 construct: purified human Factor Xa; purchased Haematologic Technologies, VT, USA
Kind of test: Factor Xa inhibition, chromogenic substrate hydrolysis, Ki app. Particulars: read-out: FXa Ki. The class given is biochemical.
Protocol: as §1, §2
Factor Xa determinations were made in 50 mM Tris buffer, pH 7.5, containing 1M NaCl, 5 mM CaCl2, 0.05% Tween-20, and 1.5 mM EDTA. […] The enzyme assay routinely yielded linear progression curves under these conditions. Initial velocity measurements calculated from the progress curves by a kinetic analysis program (Batch Ki; Peter Kuzmic, BioKin, Ltd., Madison, Wis.) were used to determine Ki app.

T2 sequence (P00742 235-488 limits assumed): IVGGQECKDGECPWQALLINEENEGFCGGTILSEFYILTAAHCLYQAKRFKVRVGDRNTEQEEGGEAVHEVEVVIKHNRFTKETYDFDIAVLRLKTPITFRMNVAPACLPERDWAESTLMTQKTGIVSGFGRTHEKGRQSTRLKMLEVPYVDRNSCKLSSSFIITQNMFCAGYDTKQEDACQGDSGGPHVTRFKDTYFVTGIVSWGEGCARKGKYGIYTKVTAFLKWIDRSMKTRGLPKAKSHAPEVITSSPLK
T2 sequence (P00742 41-179 partner limits assumed): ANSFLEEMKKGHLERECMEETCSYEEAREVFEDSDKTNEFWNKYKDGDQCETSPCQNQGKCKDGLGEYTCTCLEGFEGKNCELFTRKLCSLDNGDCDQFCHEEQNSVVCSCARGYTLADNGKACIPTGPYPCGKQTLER

Consider `N=C(N)c1ccc2[nH]c(-c3cc(CCC(=O)O)cc(Br)c3O)c(Cc3ccccc3)c2c1` [Ex. 802, 3-[3-(3-Benzyl-5-carbamimidoyl-1H-indol-2-yl)-5-bromo-4-hydroxy-phenyl]-propionic acid], for which the results for the Ki in test [1] and in test [2] were 260 nM and 0.618 nM, respectively.
Regarding `N=C(N)c1ccc2nc(-c3ccc(OCC(=O)NCc4cccc5ccccc45)cc3O)[nH]c2c1` [compound 258, 2-[4-(6-Carbamimidoyl-1H-benzoimidazol-2-yl)-3-hydroxy-phenoxy]-N-naphthalen-1-ylmethyl-acetamide], in test [2], the Ki came to 460 nM.
For the molecule `Cc1cc(-c2ccccc2)c(O)c(-c2cc3cc(C(=N)N)ccc3[nH]2)c1` [compound 820], the Ki in test [1] worked out at 65 nM; in test [2], 298 nM.
The matching figures for `N=C(N)c1cc2cc(-c3cc(CC(=O)N4CCS(=O)(=O)CC4)cc(-c4ccccc4)c3O)[nH]c2cc1Cl` [compound 860]: 4 nM and 5400 nM.
